# Test results from patent US10316054B2, “Preparation and use of crystalline beta-D-nicotinamide riboside” (GlaxoSmithKline Intellectual Property (No. 2) Limited, priority 2014, dated 2019).
# Experiments:
# [1] = Behaviour of the solid on filtration under ambient conditions / ambient humidity; type: physicochemical
# Method: Crude product (351 g) from the above example was dissolved in 1.5 L of methanol, then 625 mL of methanol was removed in vacuo. For the initial crystallization experiments, this solution was placed in a glass round-bottomed flask, and the side was scratched with a metal spatula. The solution was then stored at −20° C. for several weeks until a crystalline precipitate formed. […] For subsequent preparations, the methanol solution was seeded with 100 mg of crystalline nicotinamide riboside chloride, and the solution was allowed to stand at ambient temperature while the product crystallized over the course of several hours. Using a Buchner funnel filtration apparatus, the crystals were filtered and washed with 200 mL of ice-cold methanol. The product was dried on the filter, open to the air, for 1.5 h, then under high vacuum (<[…]) at ambient temperature for 18 h. The yield was 157 g (34%) of a light yellow solid. The product contained 0.9 molar equivalents of methanol by ^1H NMR integration (i.e., nicotinamide riboside chloride ●0.9 methanol crystals). This residual methanol could not be removed by additional drying at <40° C. […]
# [2] = Thermal decomposition of the crystals on heating under vacuum, confirmed by 1H NMR in D2O; type: physicochemical
# Method: The crystalline nature of this product was confirmed by optical microscopy using polarized light (FIG. 5). A 50 mg portion of this material was dried under high vacuum (<1.0 mm Hg) and at ambient temperature for 48 h. […] The material completely decomposed, without melting, within 17 min at 100° C. at <1 mm Hg. (Decomposition was confirmed by ^1H NMR spectral analysis in D2O solution after the heating period.) In contrast, a sample could be heated at 80° C. for 1 h and <1 mm Hg with <3% decomposition. ^1H NMR (400 MHz, D2O) δ 9.63 (s, 1H, H2), 9.31 (d, 1H, J=5.9 Hz, H4), 9.01 (dd, 1H, J=8.0 Hz, 1.0 Hz, H6), 8.32 (dd, 1H, J=8.0 Hz, 5.9 Hz, H5), 6.29 (d, 1H, J=3.9 Hz, H1′), 4.55 (t, 1H, J=3.9 Hz, H2′), 4.50 (m, 1H, H4′), 4.38 (t, 1H, J=3.9 Hz, H3′), 4.08 (dd, 1H, J=12, 3 Hz, H5′), 3.93 (dd, 1H, J=12, 3, Hz, H5′); ^13C NMR (75 MHz, D2O) δ 165.8 (C7), 145.6 (C6), 142.6 (C4), 140.4 (C2), 133.9 (C3), 128.4 (C5), 99.9 (C1′), 87.6 (C4′), 77.4 (C2′), 69.7 (C3′), 60.1 (C5′); IR (cm−1) 3299, 1700, 1398, 1080, 982, 887, 795 (see FIG. 8). XRPD (degrees) 14.2, 17.1, 20.5, 22.7, 23.8, 25.1, 26.8, 34.2 X-ray powder diffraction (XRPD) data are included as FIG. 6. The XRPD serves as a fingerprint for the crystalline form of nicotinamide riboside chloride with only trace residual solvents present.
# [3] = tested on: Human primary dermal fibroblasts (HDFa); test: NAD measurement in dermal fibroblasts treated with NR chloride (ADPR cyclase enzymatic assay, absorbance 405 nm); type: cell-based; conditions: for NAD levels: FIG. 16
# Method: Human primary dermal fibroblasts derived from adult human skins (HDFa, Life technologies, Grand Island, NY, Passage 2-4) were grown in Medium 106 (Life Technologies) supplemented with Low Serum Growth Supplement (LSGS) (Life Technologies) and seeded in 12-well plates with density at 2×10^5 cells per well and 1 ml of culture medium in each well.
# Stock solution of NR chloride (MW: 322.742, GSK3002633B) was prepared freshly in water at 100 mM. Cells were treated with NR chloride at different concentrations as shown in […] for 6 and 24 hrs, washed twice with PBS containing 5 mM EDTA, and then subject to Nicotinamide adenine dinucleotide (NAD) measurement. In brief, acetonitrile (ACN) lysis buffer (Ammonium Acetate (50 mM) and 90% acetonitrile) was added to each well (200 μl/well) to lyse the cells at RT for 5-10 mins by gently rotating on a culture plate shaker at a low speed. Enzyme master mix (300 μM of 5-Amino-(3,4′-bipyridin)-6(1H)-one (Inamrinone) (Sigma-Aldrich), a substrate for ADP ribosyl cyclase (ADPR cyclase)) and 30 nM ADPR Cyclase (Sigma, St. Louis, Mont.), in 75 mM HEPES pH7 buffer (Life Technologies)) was added to the lysed cells (400 μl of enzyme master mix/well). Enzymatic reaction was incubated at RT for ˜30 min. At the end of incubation, the supernatant (200 μl) of the reaction solution from each well was transferred to each well of a 96-well plate and absorbance was read twice in the 96-well plate at 405 nm using a plate reader (Spectra Maxplus, Molecular Devices, Sunnyvale, Calif.). A mixture of enzyme master mix and ACN extraction solution at 2:1 ratio was used as a blank reference.
# Isolated, chemically-pure NAD (Sigma) was used as a positive control. Other NAD assays are known in the art or otherwise publically available as a kit (see, e.g., Neubert, D., et al., Biochim. Biophys. Acta, 1964, 92, 610-12; Emanuelli, M., et al. J. Chromatog. B. 676, 13-18; and NAD/NADH Cell-Based Assay Kit by Cayman Chemical).
smiles,measurement,setting,value
"NC(=O)c1ccc[n+]([C@@H]2O[C@H](CO)[C@@H](O)[C@H]2O)c1.[Cl-] [Example 3, 3-carbamoyl-1-((2R,3R,4S,5R)-3,4-dihydroxy-5-(hydroxymethyl)tetrahydrofuran-2-yl)pyridin-1-ium chloride]",behaviour on the filter under ambient conditions,[1],could be filtered under ambient conditions while remaining free-flowing
"NC(=O)c1ccc[n+]([C@@H]2O[C@H](CO)[C@@H](O)[C@H]2O)c1.[Cl-] [Example 4, nicotinamide riboside chloride]","time to complete decomposition, without melting",[2]; 100° C. at <1 mm Hg,≤ 17 min
same,resistance to decomposition upon heating,[2]; compared with amorphous forms of nicotinamide riboside,far more resistant to decomposition upon heating than amorphous forms
same,decomposition,[2]; heated at 80° C. for 1 h and <1 mm Hg,< 3%
"NC(=O)c1ccc[n+]([C@@H]2O[C@H](CO)[C@@H](O)[C@H]2O)c1.[Cl-] [NR chloride, nicotinamide riboside chloride]",NAD levels,[3]; 6 hrs treatment,dose-dependently increased NAD levels
same,NAD levels,[3]; 24 hrs treatment,dose-dependently increased NAD levels
same,intracellular NAD levels,"[3]; FIG. 16, time not given",dose-dependently increases intracellular NAD levels
